{
  "source": "patent US8338607B2",
  "about": "“Cyclic amine compounds and agents for pest control” (Nippon Soda Co., Ltd., priority 2005, dated 2012)",
  "key": {"[1]": {"tested_on": "Panonychus citri", "test": "Effectiveness against Panonychus citri (mandarin orange leaf, emulsion applied with rotary spreading tower)", "type": "in vivo", "conditions": "adult female Panonychus citri; 125 ppm; adults removed 3 days after the application; whether eggs could grow to adults examined on the 11th day", "description": "10 adult female Panonychus citri were inoculated on the leaf of a mandarin orange, which was placed in a petri dish. After the inoculation, the drug solution, which was prepared by following the method of the emulsion shown in Example 2 of the drugs and by diluting with water to achieve the compound concentration of 125 ppm, was applied using a rotary spreading tower. The dish was placed in a temperature-controlled room where the temperature and humidity were set to 25° C. and 65% respectively, adults were removed 3 days after the application, and whether eggs laid during these 3 days could grow to become adults was examined on the 11th day."}, "[2]": {"tested_on": "Tetranychus urticae", "test": "Effectiveness against Tetranychus urticae (common bean leaf, wettable powder drug solution)", "type": "in vivo", "conditions": "adult female Tetranychus urticae resistant to organophosphorus pesticides; 125 ppm; examined 3 days after the application; 25° C., 65% humidity"}},
  "data": [
    {"smiles": "CCCOc1cc(C(F)(F)F)ccc1OC1CC2CCC(C1)N2c1ccc(C(F)(F)F)c(F)c1", "note": "(stereo not drawn) [Compound 4-70]", "values": [
      {"measurement": "insecticidal rate", "setting": "[1]", "result": 100, "unit": "%"},
      {"measurement": "insecticidal rate (adulticidal rate)", "setting": "[2]", "result": 100, "unit": "%"}
    ]},
    {"smiles": "FC(F)(F)c1ccc(OC2CC3CCC(C2)N3c2ccc(C(F)(F)F)cn2)nc1", "note": "(stereo not drawn) [Compound 2-3, 3α-(5-trifluoromethyl-2-pyridyloxy)-8-(5-trifluoromethyl-pyridine-2-yl)-8-azabicyclo[3.2.1]octane]", "values": [
      {"measurement": "insecticidal rate (adulticidal rate)", "setting": "[2]", "result": 100, "unit": "%"}
    ]}
  ]
}
